The source of these data is patent US11219607B2, “Methods for suppressing cancer-related cachexia” (Ohio State Innovation Foundation, priority 2013, dated 2022).

Assay [1] relates to C-26 tumor-bearing mice. As to conditions: literature reference (33); cited from earlier work.
The next assay deals with MuRF1 mRNA. The experiment in a line: qPCR of gastrocnemius muscle, C-26 model: MuRF1. Type of assay: in vivo, CD2F1 mice. As to conditions: C-26 tumor-bearing mice, 15 days after tumor cell injection, tumor-bearing/vehicle 25.8±3.9-fold, mean±S.D. On the procedure:
(§1) Total RNA was isolated from homogenized gastrocnemius muscles (n=3/group) with TRIzol reagent (Life Technologies, Carlsbad, Calif.) and then purified using the RNAeasy Mini Kit (Qiagen, Valencia, Calif.). qRT-PCR was performed as described previously (42) by using the Bio-Rad CFX96 Real-Time PCR Detection System with iQ SYBR Green Supermix (Bio-Rad, Hercules, Calif.). RNA-seq library generation and data analysis were performed at The Ohio State University Comprehensive Cancer Center (OSUCCC) Nucleic Acid Shared Resource.
(§2) AR-42 was able to restore expression of Atrogin-1 (2.7±0.7-fold) and MuRF1 (1.1±0.2-fold) mRNA to basal levels […].
(In general: In qPCR the cycle at which signal appears reflects the starting amount.)

A further assay deals with Atrogin-1/MAFbx mRNA. The assay can be described thus: qPCR of gastrocnemius muscle, C-26 model: Atrogin-1. It is filed as in vivo, CD2F1 mice. As to conditions: C-26 tumor-bearing mice, 15 days after tumor cell injection, tumor-bearing/vehicle 29.4±3.5-fold, mean±S.D. As to the method:
as §1, §2

The subject of assay [2] is C-26 tumor-bearing mice. The experiment in a line: Survival and body weight comparison of HDAC inhibitors, C-26 model. Type of assay: in vivo, CD2F1 mice. As to conditions: vorinostat 50 mg/kg p.o. once daily, romidepsin 0.6 mg/kg i.p. twice weekly, from day 6. On the procedure:
In one aspect, tumors were established by subcutaneous injection of C-26 cells (0.5×10^6 cells in 0.1 ml) into the right flank of male CD2F1 mice (approximately 6 weeks of age; Harlan Laboratories, Indianapolis, Ind.)(11). Tumor-bearing mice, as well as tumor-free mice serving as non-cachectic controls, were randomized into groups that were treated with either AR-42 (50 mg/kg, p.o. by gavage, every other day; Arno Therapeutics, Inc., Flemington, N.J.) or vehicle (0.5% methylcellulose (w/v) and 0.1% Tween-80 (v/v) in sterile water) starting 6 days after cell injection. To investigate the effect of delayed treatment, treatments with drug and/or vehicle were started 6, 10 and 12 days after cancer cell injection.
In another aspect, the effects of AR-42 were compared to other HDAC inhibitors. […]
The effects of AR-42 were compared to other HDAC inhibitors (i.e., vorinostat and romidepsin) in C-26 tumor-bearing mice. Starting on day 6 after tumor cell injection, mice were treated continuously with AR-42 (50 mg/kg every other day, orally), vorinostat [50 mg/kg once daily, orally (13)], romidepsin [0.6 mg/kg twice weekly, i.p. (14)], or vehicle, until weight loss, as determined by daily body weight measurements and subtraction of tumor mass, reached 20% of starting weight. […]

“Also recorded” adds a separate entry of the source.

For the molecule `CCCC(CCC)C(=O)O` [valproic acid], the “reversal of muscle loss in C-26 tumor-bearing mice” value with C-26 tumor-bearing mice [1] is on record as “could not reverse muscle loss”. Regarding `CC(/C=C/C(=O)NO)=C\[C@@H](C)C(=O)c1ccc(N(C)C)cc1` [trichostatin-A], the “reversal of muscle loss in C-26 tumor-bearing mice” value with C-26 tumor-bearing mice [1] is “could not reverse muscle loss”. Consider `C/C=C1\NC(=O)[C@H]2CSSCC/C=C/[C@H](CC(=O)N[C@H](C(C)C)C(=O)N2)OC(=O)[C@H](C(C)C)NC1=O` [romidepsin], for which the “MuRF1 mRNA level relative to tumor-free/vehicle control” value with MuRF1 mRNA worked out at 14.6±3.3 fold. Besides, in the assay with Atrogin-1/MAFbx mRNA, the “Atrogin-1 mRNA level relative to tumor-free/vehicle control” value was 19.6±3.1 fold. For `O=C(CCCCCCC(=O)Nc1ccccc1)NO` [vorinostat], the “protective effect on body weight / attenuation of cachexia-induced weight loss” value with C-26 tumor-bearing mice [2] was “limited or no appreciable protective effects; also recorded: ineffective”. Further, the “MuRF1 mRNA level relative to tumor-free/vehicle control” value with MuRF1 mRNA is given as 5.5±1.1 fold. The “Atrogin-1 mRNA level relative to tumor-free/vehicle control” value in the assay with Atrogin-1/MAFbx mRNA is given as 9.6±1.8 fold.
